According to ChEMBL document CHEMBL5252658, “Conversion of a Cardiac Muscle Modulator from an Inhibitor to an Activator” (ACS Med Chem Lett, 2023):
The source made the active and inactive calls. The calls are words filed in the database; no cut-off is given here.

Key:
Rattus norvegicus = species on record: Rattus norvegicus; test: Cardiovascular activity in rat ventricular trabeculae assessed as increase in calcium sensitivity of force development at 50 uM; assay type: functional
Bos taurus = species on record: Bos taurus; test: Modulation of bovine cardiac myofibrils ATPase activity at 50 uM relative to control; conditions: filed as modulator
[1] = Binding affinity to CTNI-CTNC N-domain chimera (unknown origin) assessed as dissociation constant; set-up: species or system Homo sapiens

| Structure (SMILES) | Activity (Rattus norvegicus) | Activity (Bos taurus) [%] | Kd [1] [µM] |
| --- | --- | --- | --- |
| NCCCCCCNS(=O)(=O)c1cccc(-c2ccc(F)cc2F)c1 | Active | 30 | 200 |
| NCCCCCCNS(=O)(=O)c1cccc2c(Cl)cccc12 |  |  | 470 |
| NCCCCCCCCNS(=O)(=O)c1cccc(-c2ccc(F)cc2F)c1 |  | 30 | 60 |
| NCCCCCCCNS(=O)(=O)c1cccc(-c2ccc(F)cc2F)c1 |  | 30 | 120 |
